Read-outs that look alike come from different tables or passages of the source.
Legend:
BoNT/A LC [1] = target: T1, BoNT/A LC (Clostridium botulinum, UniProt P0DPI0); assay: biochemical; type: biochemical
Anthrax LF = Anthrax LF (Bacillus anthracis, UniProt P15917); assay: biochemical
human MMP-1 = human MMP-1 (Homo sapiens, UniProt P03956); type: biochemical
human MMP-2 = human MMP-2 (Homo sapiens, UniProt P08253); type: biochemical
human MMP-9 = human MMP-9 (Homo sapiens, UniProt P14780); type: biochemical
human MMP-9, sequence (P14780 94-707): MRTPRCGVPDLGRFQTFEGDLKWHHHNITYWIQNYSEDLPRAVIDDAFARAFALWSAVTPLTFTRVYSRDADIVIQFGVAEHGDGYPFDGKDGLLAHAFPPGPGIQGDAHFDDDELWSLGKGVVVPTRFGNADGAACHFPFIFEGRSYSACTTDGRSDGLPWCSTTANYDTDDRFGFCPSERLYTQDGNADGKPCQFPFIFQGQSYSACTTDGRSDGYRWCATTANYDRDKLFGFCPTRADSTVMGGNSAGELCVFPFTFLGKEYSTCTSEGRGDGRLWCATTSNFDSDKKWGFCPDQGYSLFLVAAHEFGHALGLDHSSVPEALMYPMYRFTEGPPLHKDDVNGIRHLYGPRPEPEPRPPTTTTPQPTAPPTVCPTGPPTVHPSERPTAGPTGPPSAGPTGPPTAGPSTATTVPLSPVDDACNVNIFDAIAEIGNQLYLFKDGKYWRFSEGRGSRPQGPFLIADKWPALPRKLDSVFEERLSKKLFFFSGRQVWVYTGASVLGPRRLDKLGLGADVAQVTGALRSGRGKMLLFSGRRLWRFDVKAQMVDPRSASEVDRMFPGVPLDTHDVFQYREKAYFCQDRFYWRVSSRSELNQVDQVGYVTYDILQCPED

BoNT/A LC [2] = target: T1, BoNT/A LC; type: biochemical
BoNT/A LC [3] = target: T1, BoNT/A LC; type: biochemical; remark: listed apart in the source
BoNT/B LC = conditions: cited from earlier work
BoNT/A LC [4] = target: T1, BoNT/A LC; conditions: cited from earlier work

Anthrax LF, sequence (P15917 34-809 limits assumed): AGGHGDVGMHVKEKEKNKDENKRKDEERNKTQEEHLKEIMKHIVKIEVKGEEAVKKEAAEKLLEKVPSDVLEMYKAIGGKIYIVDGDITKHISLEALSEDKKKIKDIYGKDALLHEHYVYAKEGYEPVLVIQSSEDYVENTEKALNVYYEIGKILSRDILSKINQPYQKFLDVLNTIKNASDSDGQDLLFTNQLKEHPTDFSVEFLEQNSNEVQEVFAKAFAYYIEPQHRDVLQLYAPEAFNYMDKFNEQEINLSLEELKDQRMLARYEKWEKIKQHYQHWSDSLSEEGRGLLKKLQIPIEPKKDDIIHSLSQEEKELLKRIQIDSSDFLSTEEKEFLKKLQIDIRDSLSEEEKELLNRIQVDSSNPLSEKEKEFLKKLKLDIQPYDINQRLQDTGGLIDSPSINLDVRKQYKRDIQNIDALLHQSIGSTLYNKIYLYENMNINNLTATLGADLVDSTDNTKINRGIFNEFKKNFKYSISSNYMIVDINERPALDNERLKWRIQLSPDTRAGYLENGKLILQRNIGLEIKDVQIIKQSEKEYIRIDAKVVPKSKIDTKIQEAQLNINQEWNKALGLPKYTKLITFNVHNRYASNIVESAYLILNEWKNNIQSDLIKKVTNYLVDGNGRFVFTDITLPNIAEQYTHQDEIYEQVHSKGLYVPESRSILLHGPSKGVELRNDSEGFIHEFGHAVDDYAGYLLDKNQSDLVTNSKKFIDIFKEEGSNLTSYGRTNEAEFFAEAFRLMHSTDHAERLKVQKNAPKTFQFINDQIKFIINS
T1 sequence (P0DPI0 2-448 limits assumed): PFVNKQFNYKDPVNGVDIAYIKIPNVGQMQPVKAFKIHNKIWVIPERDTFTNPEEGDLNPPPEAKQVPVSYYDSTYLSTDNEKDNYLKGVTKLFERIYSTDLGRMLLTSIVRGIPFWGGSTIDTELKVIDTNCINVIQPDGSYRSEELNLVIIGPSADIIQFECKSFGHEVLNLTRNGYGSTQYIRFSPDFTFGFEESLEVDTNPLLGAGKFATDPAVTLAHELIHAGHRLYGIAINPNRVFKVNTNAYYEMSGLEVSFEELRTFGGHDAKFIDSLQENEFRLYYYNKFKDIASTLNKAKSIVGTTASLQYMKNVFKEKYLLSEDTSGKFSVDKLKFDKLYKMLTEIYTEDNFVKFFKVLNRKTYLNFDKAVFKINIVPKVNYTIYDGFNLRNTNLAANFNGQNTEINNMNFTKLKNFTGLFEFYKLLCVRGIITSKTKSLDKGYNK
human MMP-2, sequence (P08253 110-660): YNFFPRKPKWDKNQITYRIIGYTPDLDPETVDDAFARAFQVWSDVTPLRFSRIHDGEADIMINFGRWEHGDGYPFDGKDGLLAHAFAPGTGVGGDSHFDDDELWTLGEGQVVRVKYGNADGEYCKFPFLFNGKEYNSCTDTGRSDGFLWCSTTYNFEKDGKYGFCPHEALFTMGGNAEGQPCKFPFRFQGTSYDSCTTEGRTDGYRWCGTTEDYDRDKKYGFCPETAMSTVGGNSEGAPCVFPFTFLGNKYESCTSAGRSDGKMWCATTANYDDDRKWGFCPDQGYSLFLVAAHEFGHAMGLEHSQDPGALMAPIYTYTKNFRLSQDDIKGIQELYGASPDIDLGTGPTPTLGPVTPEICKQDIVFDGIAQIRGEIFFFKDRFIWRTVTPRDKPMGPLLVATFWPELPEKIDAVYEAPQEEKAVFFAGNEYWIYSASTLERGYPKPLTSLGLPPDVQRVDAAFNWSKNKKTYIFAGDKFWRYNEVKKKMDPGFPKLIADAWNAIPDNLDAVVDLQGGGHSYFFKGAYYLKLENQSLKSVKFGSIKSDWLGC
human MMP-1, sequence (P03956 100-469): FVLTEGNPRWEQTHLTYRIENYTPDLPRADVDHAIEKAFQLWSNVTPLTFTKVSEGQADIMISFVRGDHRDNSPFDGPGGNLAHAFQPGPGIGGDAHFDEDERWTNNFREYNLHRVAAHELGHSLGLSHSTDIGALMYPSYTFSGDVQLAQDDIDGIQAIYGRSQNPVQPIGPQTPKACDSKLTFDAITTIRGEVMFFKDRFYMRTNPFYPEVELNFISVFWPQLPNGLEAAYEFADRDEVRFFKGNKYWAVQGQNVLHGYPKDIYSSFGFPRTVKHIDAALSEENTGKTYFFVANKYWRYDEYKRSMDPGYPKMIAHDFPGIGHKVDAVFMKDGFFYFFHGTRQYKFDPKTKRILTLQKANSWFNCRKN

## 2-(1-Cyano-2-phenylvinyl)benzimidazole [Compound 8a]
BoNT/A LC [1]
  BoNT/A LC inhibitory potency (in words): eliminated inhibitory potency

## 2-[1-Cyano-2-(2,4-dichloropyrimidin-3-yl)vinyl]-benzimidazole [Compound 10b]
Anthrax LF; read-out: Anthrax LF IC50
  IC50: > 100 µM

## COc1ccc(/C=C(\C#N)c2nc3ccccc3[nH]2)cc1I [Compound 4]
Human MMP-1
  MMP-1 IC50: neither compound inhibited
Human MMP-2
  MMP-2 IC50: neither compound inhibited
Human MMP-9
  MMP-9 IC50: neither compound inhibited
BoNT/A LC [2]
  Inactivated by cysteine: inactivated
  Inactivated by glutathione: inactivated
  Inactivated by zinc chelation: neither are metal chelating agents
BoNT/A LC [3]
  manner of BoNT/A LC inhibition: time-dependent
BoNT/B LC
  BoNT/B LC FRET IC50: neither 4 nor 5 inhibited
BoNT/A LC [4]
  kinetics with respect to the substrate: noncompetitive

## N#C/C(=C\c1ccc(-c2cccs2)s1)c1nc2ccccc2[nH]1 [Compound 5, 3-(2,2'-Bithiophen-5-yl)-2-(1H-benzo[d]imidazol-2-yl)acrylonitrile]
Human MMP-1
  MMP-1 IC50: neither compound inhibited
Human MMP-2
  MMP-2 IC50: neither compound inhibited
Human MMP-9
  MMP-9 IC50: neither compound inhibited
BoNT/A LC [2]
  Inactivated by cysteine: no significant, non-specific reactivity
  Inactivated by glutathione: no significant, non-specific reactivity
  Inactivated by zinc chelation: neither are metal chelating agents
BoNT/A LC [3]
  manner of BoNT/A LC inhibition: time-dependent
BoNT/B LC
  BoNT/B LC FRET IC50: neither 4 nor 5 inhibited
BoNT/A LC [4]
  kinetics with respect to the substrate: noncompetitive

## COc1ccc(/C=C(\C#N)c2nc3ccccc3[nH]2)cc1OC [Compound 8f, 2-(1H-Benzo[d]imidazol-2-yl)-3-(3,4-dimethoxyphenyl)acrylonitrile]
BoNT/A LC [1]
  BoNT/A LC inhibitory potency (in words): eliminated inhibitory potency

## COc1cc(/C=C(\C#N)c2nc3ccccc3[nH]2)cc(Cl)c1O [Compound 8g, 2-[1-Cyano-2-(3-chloro-5-methoxy-4-hydroxyphenyl)vinyl]benzimidazole]
BoNT/A LC [1]
  BoNT/A LC inhibitory potency (in words): significantly decreased or diminished activity

## COc1cc(C=C(C#N)c2nc3ccccc3[nH]2)cc(Br)c1O [Compound 8h, 2-[1-Cyano-2-(3-bromo-5-methoxy-4-hydroxyphenyl)vinyl]benzimidazole]
BoNT/A LC [1]
  BoNT/A LC inhibitory potency (in words): significantly decreased or diminished activity
  IC50: 94 µM
Anthrax LF
  IC50: > 100 µM

## N#C/C(=C\c1ccc(-c2ccccc2)cc1)c1nc2ccccc2[nH]1 [Compound 8i, 2-(1H-Benzo[d]imidazol-2-yl)-3-(biphenyl-4-yl)acrylonitrile]
BoNT/A LC [1]
  BoNT/A LC inhibitory potency (in words): significantly lower potency with respect to 4

## N#CC(=Cc1ccc(-n2ccnc2)cc1)c1nc2ccccc2[nH]1 [Compound 8j, 3-(4-(1H-Imidazol-1-yl)phenyl)-2-(1H-benzo[d]imidazol-2-yl)acrylonitrile]
BoNT/A LC [1]
  BoNT/A LC inhibitory potency (in words): significantly lower potency with respect to 4
  IC50: 73 µM
Anthrax LF
  IC50: > 100 µM

## COc1cc(C=C(C#N)c2nc3ccccc3[nH]2)cc(O)c1OC [Compound 8k, 2-(1H-Benzo[d]imidazol-2-yl)-3-(3-hydroxy-4,5-dimethoxyphenyl)acrylonitrile]
BoNT/A LC [1]
  BoNT/A LC inhibitory potency (in words): significantly decreased or diminished activity
  IC50: > 100 µM
Anthrax LF
  IC50: > 100 µM

## Cc1ccc(/C=C(\C#N)c2nc3ccccc3[nH]2)s1 [Compound 12a, 2-(1H-Benzo[d]imidazol-2-yl)-3-(5-methylthiophen-2-yl)acrylonitrile]
BoNT/A LC [1]
  BoNT/A LC inhibitory potency (in words): no BoNT/A LC inhibition

## Cc1cc(/C=C(\C#N)c2nc3ccccc3[nH]2)sc1C [Compound 12b, 2-(1H-Benzo[d]imidazol-2-yl)-3-(4,5-dimethylthiophen-2-yl)acrylonitrile]
BoNT/A LC [1]
  BoNT/A LC inhibitory potency (in words): no BoNT/A LC inhibition

## N#C/C(=C\c1cccs1)c1nc2ccccc2[nH]1 [Compound 12c, 2-(1H-Benzo[d]imidazol-2-yl)-3-(thiophen-2-yl)acrylonitrile]
BoNT/A LC [1]
  BoNT/A LC inhibitory potency (in words): no BoNT/A LC inhibition

## N#C/C(=C\c1ccc(-c2ccco2)s1)c1nc2ccccc2[nH]1 [Compound 12d, 2-(1H-Benzo[d]imidazol-2-yl)-3-(5-(furan-2-yl)thiophen-2-yl)acrylonitrile]
BoNT/A LC [1]
  BoNT/A LC inhibitory potency (in words): approximately two-fold less potent than 5

## N#C/C(=C\c1ccc(-c2cccs2)o1)c1nc2ccccc2[nH]1 [Compound 12e, 2-(1H-Benzo[d]imidazol-2-yl)-3-(5-(thiophen-2-yl)furan-2-yl)acrylonitrile hemiacetate]
BoNT/A LC [1]
  BoNT/A LC inhibitory potency (in words): no activity was observed

## N#C/C(=C\c1ccc(-c2cccs2)s1)c1cc2ccccc2[nH]1 [Compound 14a, 3-(2,2'-Bithiophen-5-yl)-2-(1H-indol-2-yl)acrylonitrile]
BoNT/A LC [1]
  BoNT/A LC inhibitory potency (in words): eliminated inhibitory potency

## N#C/C(=C\c1ccc(-c2cccs2)s1)c1nc2ccccc2s1 [Compound 14b, 3-(2,2'-Bithiophen-5-yl)-2-(benzo[d]thiazol-2-yl)acrylonitrile]
BoNT/A LC [1]
  BoNT/A LC inhibitory potency (in words): eliminated inhibitory potency

## N#C/C(=C\c1ccc(-c2cccs2)s1)c1nc2ccccc2o1 [Compound 14c, 3-(2,2'-Bithiophen-5-yl)-2-(benzo[d]oxazol-2-yl)acrylonitrile]
BoNT/A LC [1]
  BoNT/A LC inhibitory potency (in words): eliminated inhibitory potency

## N#C/C(=C\c1ccc(-c2cccs2)s1)c1ccc2ccccc2n1 [Compound 14d, 3-(2,2'-Bithiophen-5-yl)-2-(quinolin-2-yl)acrylonitrile]
BoNT/A LC [1]
  BoNT/A LC inhibitory potency (in words): eliminated inhibitory potency

## Cn1c(/C(C#N)=C/c2ccc(-c3cccs3)s2)[n+](C)c2ccccc21.[I-] [Compound 15, 2-(2-(2,2'-Bithiophen-5-yl)-1-cyanovinyl)-1,3-dimethyl-1H-benzo[d]imidazol-3-ium iodide]
BoNT/A LC [1]
  BoNT/A LC inhibitory potency (in words): detrimental to potency
